Laboratory results as given in patent US9511120B2, “Use of the angiotensin-(1-9) peptide or derivatives thereof, use of vectors overexpressing the ACE2 enzyme that produces angiotensin-(1-9) for preparing medicaments useful for preventing, reverting, inhibiting and/or reducing hypertension and/or inducing vasodilation” (PONTIFICA UNIVERSIDAD CATÓLICA DE CHILE, priority 2012, dated 2016).
Where no end group is shown, it is not given here.

How the values were obtained:
rat mesenteric arteries = test: Contractility studies in perfused, pressurized mesenteric arteries; settings: arteries with intact endothelium as compared to arteries without endothelium
Procedure: The change in diameter of rat resistance (mesenteric) arteries was determined, they were then perfused and pressurized under physiological conditions, in response to different substances, according to a methodology previously described (Gonzalez et al. Hypertension 45:853-9, 2005). Briefly, male rats (Sprague Dawley, 150-200 g) were euthanized for dissection of mesenteric vascular territory, avoiding direct manipulation of arterial or venous tissue. Mesenteric small arteries (200-300 micrometers) were isolated, surgically eliminating adventitial tissue under a zoom stereo microscope (Olympus SZ61). The arteries were perfused intraluminally into a thermoregulated bath at controlled pressure and flow, with perfusion solution (modified Krebs, KRB) of the following composition, in mmol/L: NaCl, 130; CaCl2, 2.5; NaHCO3, 25; MgSO4, 1.2; NaH2PO4, 1.2; KCl, 4.7; glucose, 5.5, pH 7.4. Before use, KRB was gassed with a mixture of 95% O2 and 5% CO2. For perfusion, the artery was cannulated with a glass micropipette (outer diameter 164μ), secured with 5-0 silk suture. The arteries were perfused with 10-20 μL/min KRB, so as to achieve transmural pressure of 60 mmHg. After a rest period of 20 minutes, each artery was incubated in the presence of a vasoconstrictor (100 μM phenylephrine) for two minutes and an endothelial NO production agonist (1 μM acetylcholine). […]

ED-1 = test: Goldblatt model: ED-1 levels of the aortic wall (immunohistochemistry); format: in vivo, rat; settings: GB rats
From the text: Lewis normotensive rats (weight 150±10 g), which were separated randomly into the experimental hypertension model group or GB (Ocaranza et al. J. Hypertens. 20:413-20, 2002) or control group (S) were used. The latter corresponded to pseudo-operated animals. All animals were maintained under controlled conditions of light and darkness and had free access to food and water. Four weeks after surgery and at a blood pressure above 140 mmHg, GB rats were randomized for the chronic administration of angiotensin-(1-9) through an osmotic pump (602 ng kg^−1min^−1) via the jugular vein during two weeks. The animals were euthanized after 6 weeks post-surgery.
Immunostaining was performed using the streptavidin-biotin-peroxidase method with the inflammation marker ED-1. This is a glycoprotein expressed primarily in the lysosomal membrane of active macrophages (Leskovar et al. J. Exp. Biol. 203:1783-1795, 2000).
In order to block endogenous peroxidase, the samples were deparaffinized, rehydrated and treated with 10% H2O2 in methanol for 1 h. Then, the tissues were incubated with monoclonal antibody anti ED-1 (clone MCA341R, Serotec) diluted 1/1000 in 1% BSA prepared in PBS-0.05% Tween 20 overnight at 4° C. in a humid chamber. The sections were washed three times with 1×PBS-0.05% Tween 20, pH 7.4 for 5 min and incubated with the biotinylated secondary antibody for 30 min at room temperature. […]

DRVYIHPFH
diameter of resistance arteries (rat mesenteric arteries): increased in a dose-dependent manner
decrease of ED-1 levels (ED-1): 82%
